From patent US20260324636A1, “COMPOSITION FOR PROVIDING PLANT WITH STRESS RESISTANCE” (KIRIN HOLDINGS KABUSHIKI KAISHA, priority 2022, published 2026)

Columns and labels:
[1] = system: OsHSFA2E; assay: OsHSFA2E gene expression by real-time PCR, Example 6; type: in vivo, rice; settings: Oryza sativa; 0.5 mM in medium, 30° C. for 2 hours, aboveground part; read-out: OsHSFA2E expression level, increase vs control
Source text: In order to design primers for the target genes necessary for gene expression analysis by real-time PCR, homologs of Arabidopsis thaliana high-temperature-responsive genes in rice were searched for. The amino acid sequence of Arabidopsis thaliana HSFA2 (AGI code: AT2G26150) was obtained from TAIR (https://www.arabidopsis.org/), and the nucleotide sequence of the homolog was obtained using RAP-DB (https://rapdb.dna.affrc.go.jp/). As a reference gene, the nucleotide sequence of the homolog of Arabidopsis thaliana ACTIN2 (AGI code: AT3G18780) was also obtained. Homolog genes in rice were designated as OsHSFA2E and OsACT1, respectively.
The materials as used in Example 3 were used.
The method as employed in Example 3 was employed.
The rice samples subjected to germination for 3 days were inoculated into a liquid medium consisting of a ½ Murashige and Skoog Plant Salt Mixture. Specifically, a liquid medium was dispensed at 3 ml/well to a 12-well microplate (IWAKI), and 3 samples were transferred to each well. N-acetylglutamic acid was applied to each well to the final concentration of 0.5 mM in the medium, incubation was performed at 30° C. for 2 hours, and RNA was extracted from the aboveground part using the RNeasy Plant Mini Kit. […]
Thereafter, the relative expression level of the target gene upon N-acetylglutamic acid treatment was calculated by the ΔΔCt method.

[2] = system: HSP17.6C; assay: HSP17.6C gene expression by real-time PCR, Example 5; type: in vivo; settings: Arabidopsis thaliana; 0.1 mM in medium, 6 hours after application, 22° C.; read-out: HSP17.6C expression level, increase vs control group
Description: The materials as used in Example 1 were used.
The method as employed in Example 1 was employed.
N-acetylglutamic acid was applied to Arabidopsis thaliana 7 days after inoculation to the final concentration of 0.1 mM in the medium, followed by incubation for 2 hours or 6 hours. The incubator was maintained at a temperature of 22° C. for a daily cycle of 16 hours light and 8 hours darkness. After incubation, the samples were frozen with liquid nitrogen, and RNA was extracted using the RNeasy Plant Mini Kit (Thermo Fischer Scientific).
cDNA that would be necessary as a real-time PCR template was synthesized from the RNA obtained. 500 ng total RNA was used for each sample, and cDNA was synthesized using the Verso cDNA Synthesis Kit (Thermo Fischer Scientific). The synthesized cDNA was diluted to 5-fold with sterile distilled water and subjected to real-time PCR. For real-time PCR, a reaction solution containing HSFA2 (AGI code: AT2G26150) and HSP17.6C (AGI code: AT1G53540) as the target genes, ACTIN2 (AGI code: AT3G18780) as the reference gene, and TB Green Ex Taq II (TaKaRa) was prepared. PCR was performed with the use of the LightCycler® 480 System (Roche) with the number of amplification cycles of 50. […]
Thereafter, the relative expression level of the target genes upon N-acetylglutamic acid treatment were calculated by the ΔΔCt method using the Cp values obtained by real-time PCR.

[3] = system: Arabidopsis thaliana; assay: High-temperature stress resistance in liquid culture (leaf chlorosis, chlorophyll content), Example 1; type: in vivo, Arabidopsis thaliana (Col-0); settings: for chlorosis of plants caused by the high-temperature treatment: 2 h before 44° C. for 60 minutes, then 22° C. 3 days; for chlorophyll content (fresh weight basis): 44° C. 60 minutes, vs group not subjected to the treatment
Source text: A wild-type Arabidopsis thaliana strain (accession: Col-0) was used as an experimental material. Seeds were purchased from Inplanta Innovations Inc. (https://www.inplanta.jp/).
A liquid medium containing a ½ Murashige and Skoog Plant Salt Mixture (Nacalai) and 1 (w/v) % sucrose (FUJIFILM Wako) was used as a growth medium.
Arabidopsis thaliana seeds were sterilized with the use of a Kitchen Haiter® liquid (bleach for kitchen available from Kao Corporation) diluted to one-half concentration with distilled water for 3 minutes, washed 3 times with sterile distilled water, and then incubated at 4° C. overnight. The growth medium was dispensed at 1 ml/well on a 24-well microplate (IWAKI), 3 grains of the seeds were inoculated in each well, and the plate was transferred to the incubator (TOMY) to initiate growing. The incubator was maintained at a temperature of 22° C. for a daily cycle of 16 hours light and 8 hours darkness.
Before high-temperature treatment, a stock solution of N-acetylglutamic acid (Tokyo Chemical Industry Co., Ltd.) was added to Arabidopsis thaliana 7 days after seeding to the final concentration of 0, 0.01, 0.05, and 0.1 mM in the media, followed by incubation for 2 hours. Sterile distilled water was used as a solvent for the stock solution of N-acetylglutamic acid.
High-temperature treatment was performed with the use of an incubator. The plate was transferred to an incubator maintained at 44° C., incubated for 60 minutes to perform high-temperature treatment, and cultured in an incubator maintained at 22° C. for 3 days.
Plants are known to lose the green pigment chlorophyll from tissue such as leaves upon high-temperature stress exposure and become chlorotic as a consequence. Accordingly, the chlorophyll content was quantified after the high-temperature treatment to evaluate activity of N-acetylglutamic acid to enhance high-temperature stress resistance. The chlorophyll content was quantified in accordance with the method of Yamaguchi et al. (Nature Commun., Jun. 9, 2021, 12 [1]: 3480). To the collected plants, N,N-dimethylformamide (FUJIFILM Wako) was added at 1 ml/well, and incubation was performed at 4° C. in the dark overnight to extract the chlorophyll. Thereafter, the absorbance of the chlorophyll extract was measured at 647 nm (A647) and 664 nm (A664), respectively, using a microspectrophotometer (NanoPhotometer, Implen), and the chlorophyll content was calculated in accordance with the formula: 19.43×A647+8.05×A664. […] Thus, the chlorophyll content was calculated on a fresh weight basis to compare the chlorophyll content among samples.

Structure (SMILES): CC(=O)N[C@@H](CCC(=O)O)C(=O)O [N-acetylglutamic acid]
- fold induction at 500 µM [1]: 1.4
- fold induction at 100 µM [2]: 1.2
- chlorosis of plants caused by the high-temperature treatment ([3]; 0.05 mM in medium): suppressed
- chlorophyll content (fresh weight basis) ([3]; 0.05 mM): significantly higher
- chlorosis of plants caused by the high-temperature treatment ([3]; 0.1 mM in medium): suppressed
- chlorophyll content (fresh weight basis) ([3]; 0.1 mM): significantly higher
